# Reference: patent US10604489B2, “Compounds for the treatment of pain” (priority 2018, dated 2020)
# Where a name gives a salt, the structure may show the parent alone.
# Tests used:
# human μ opioid receptor = human μ opioid receptor (Homo sapiens (Human), UniProt P35372); experiment: Functional activity ([35S]GTPγS binding); type: biochemical; conditions: [35S]GTPγS 0.080 nM, CHO cell membranes, 60 min at 30° C., filtration
# Protocol: The [^35S]GTPγS assay measures the functional properties of a compound by quantifying the level of G-protein activation following agonist binding in studies using stably transfected cells, and is considered to be a measure of the efficacy of a compound. Membranes from CHO (Chinese Hamster Ovary) cells that stably expressed one type of the cloned human opioid receptor human were used in the experiments. In a final volume of 0.5 mL, 12 different concentrations of each test compound were incubated with 7.5 μg of CHO cell membranes that stably expressed the human p opioid receptor. The assay buffer consisted of 50 mM Tris-HCl, pH 7.4, 3 mM MgCl2, 0.2 mM EGTA, 3 μM GDP, and 100 mM NaCl. The final concentration of [35S]GTPγS was 0.080 nM. Nonspecific binding was measured by inclusion of 10 μM GTPγS. Binding was initiated by the addition of the membranes. After an incubation of 60 min at 30° C., the samples were filtered through Schleicher & Schuell No. 32 glass fiber filters. The filters were washed three times with cold 50 mM Tris-HCl, pH 7.5, and were counted in 2 mL of Ecoscint scintillation fluid.
# μ-receptor = μ-receptor (Homo sapiens (Human), UniProt P35372); experiment: Receptor binding, competitive displacement of [3H]DAMGO; conditions: 0.25 nM [3H]DAMGO, CHO cell membrane protein, 60 min at 25° C.
# Protocol: The Ki (binding affinity) for μ-receptor was determined with a previously described method using a competitive displacement assay (Neumeyer et al., J. Med. Chem., v. 46, p. 5162-5170, 2003). Membrane protein from CHO (Chinese Hamster Ovarian) cells that stably expressed one type of the cloned human opioid receptor were incubated with 12 different concentrations of the compound in the presence of 0.25 nM [3H]DAMGO, 0.2 nM [3H]naltrindole or 1 nM [3H]U69,593 in a final volume of 1 mL of 50 mM Tris-HCl, pH 7.5 at 25° C. Incubation times of 60 min were used for [3H]DAMGO and [3H]U69,593. Because of a slower association of [3H]naltrindole with the receptor, a 3 h incubation was used with this radioligand. Samples incubated with [3H]naltrindole also contained 10 mM MgCl2 and 0.5 mM phenylmethylsulfonyl fluoride. Nonspecific binding was measured by inclusion of 10 μM naloxone. The binding was terminated by filtering the samples through Schleicher & Schuell No. 32 glass fiber filters using a Brandel 48-well cell harvester. The filters were subsequently washed three times with 3 mL of cold 50 mM Tris-HCl, pH 7.5, and were counted in 2 mL Ecoscint A scintillation fluid. For [3H]naltrindole and [3H]U69,593 binding, the filters were soaked in 0.1% polyethylenimine for at least 60 min before use. IC50 values will be calculated by least squares fit to a logarithm-probit analysis. Ki values of unlabelled compounds were calculated from the equation Ki=(IC50)/1+S where S=(concentration of radioligand)/(Kd of radioligand) (Cheng and Prusoff, Biochemical Pharmacology, v. 22, p. 3099-3108, 1973).
SMILES,EC50 (human μ opioid receptor) [nM],Ki (μ-receptor) [nM]
"COC1(c2cccc(C(N)=O)c2)C2CCCC1CN(C1CC3CCC(C1)O3)C2 (single isomer, unassigned) [Compound 14, hydrochloride]",> 75,1 to 5
"COC1(c2ccnc(C(N)=O)c2)C2CCCC1CN(Cc1ccn[nH]1)C2 [Compound 100, 4-((1R,5S,9r)-3-((1H-pyrazol-5-yl)methyl)-9-methoxy-3-azabicyclo[3.3.1]nonan-9-yl)picolinamide hydrochloride]",10 to 75,< 1
"COC1(c2ccc(C(N)=O)s2)C2CCCC1CN(C13CC(C1)C3)C2 [Compound 112, 5-((1R,5S,9r)-3-(bicyclo[1.1.1]pentan-1-yl)-9-methoxy-3-azabicyclo[3.3.1]nonan-9-yl)thiophene-2-carboxamide hydrochloride]",> 75,1 to 5
"CCN1CC2CCCC(C1)C2(OC)c1ccnc(C(N)=O)c1 [Compound 66, 4-((1R,5S,9r)-3-ethyl-9-methoxy-3-azabicyclo[3.3.1]nonan-9-yl)picolinamide hydrochloride]",10 to 75,1 to 5
"CCCC(C)N1CC2CCCC(C1)C2(OC)c1ccnc(C(N)=O)c1 [Compound 118, 4-((1R,5S,9r)-9-methoxy-3-(pentan-2-yl)-3-azabicyclo[3.3.1]nonan-9-yl)picolinamide hydrochloride]",10 to 75,1 to 5
"COC1(c2ccnc(C(N)=O)c2)C2CCCC1CN([C@@H]1C[C@H]3C[C@H]3C1)C2 (stereo partly drawn) [Compound 93, 4-((1R,5S,9R)-3-((1R,3r,5S)-bicyclo[3.1.0]hexan-3-yl)-9-methoxy-3-azabicyclo[3.3.1]nonan-9-yl)picolinamide hydrochloride]",10 to 75,1 to 5
"COC1(c2cccc(C(N)=O)c2)C2CCCC1CN(C[C@H]1CCOC1)C2 (single isomer, unassigned) [Compound 148, hydrochloride]",< 10,< 1
"COC1(c2ccnc(C(N)=O)c2)C2CCCC1CN(Cc1ncco1)C2 [Compound 113, 4-((1R,5S,9r)-9-methoxy-3-(oxazol-2-ylmethyl)-3-azabicyclo[3.3.1]nonan-9-yl)picolinamide hydrochloride]",> 75,> 5
"COC1(c2ccnc(C(N)=O)c2)C2CCCC1CN([C@H]1CC[C@@H]1c1ccccc1)C2 (stereo partly drawn) [Compound 117, 4-((1R,5S,9s)-9-methoxy-3-((1S,2R)-2-phenylcyclobutyl)-3-azabicyclo[3.3.1]nonan-9-yl)picolinamide hydrochloride]",10 to 75,1 to 5
"COC1(c2ccnc(C(N)=O)c2)C2CCCC1CN(C1(C)CC1)C2 [Compound 4, 4-((1R,5S,9r)-9-methoxy-3-(1-methylcyclopropyl)-3-azabicyclo[3.3.1]nonan-9-yl)picolinamide hydrochloride]",> 75,> 5
"COC1(c2ccnc(C(N)=O)c2)C2CCCC1CN([C@H]1CC[C@@H]1C)C2 (single isomer, unassigned) [Compound 144, hydrochloride]",10 to 75,< 1
"COC1(c2ccnc(C(N)=O)c2)C2CCCC1CN(C1CCC1)C2 [Compound 90, 4-((1R,5S,9r)-3-cyclobutyl-9-methoxy-3-azabicyclo[3.3.1]nonan-9-yl)picolinamide hydrochloride]",10 to 75,1 to 5
"COC1(c2cccc(C(N)=O)c2)C2CCCC1CN([C@H]1CCCOC1)C2.Cl (single isomer, unassigned) [Compound 140, hydrochloride]",10 to 75,< 1
COC1(c2cccc(C(N)=O)c2)C2CCCC1CN(CCC(F)F)C2 (stereo not shown) [Compound 159],< 10,< 1
"COC[C@@H](C)N1CC2CCCC(C1)C2(OC)c1ccnc(C(N)=O)c1 (single isomer, unassigned) [Compound 62, hydrochloride]",> 75,> 5
"COC1(c2cccc(C(N)=O)c2)C2CCCC1CN(CCS(C)(=O)=O)C2 [Compound 150, 3-((1R,5S,9r)-9-methoxy-3-(2-(methylsulfonyl)ethyl)-3-azabicyclo[3.3.1]nonan-9-yl)benzamide hydrochloride]",> 75,1 to 5
"COC[C@H](C)N1CC2CCCC(C1)C2(OC)c1ccnc(C(N)=O)c1.Cl (single isomer, unassigned) [Compound 61, hydrochloride]",10 to 75,1 to 5
"COC1(c2ccc(C(N)=O)s2)C2CCCC1CN(C1CN(C(C)=O)C1)C2 [Compound 114, 5-((1R,5S,9r)-3-(1-acetylazetidin-3-yl)-9-methoxy-3-azabicyclo[3.3.1]nonan-9-yl)thiophene-2-carboxamide hydrochloride]",> 75,> 5
"COC1(c2ccnc(C(N)=O)c2)C2CCCC1CN(Cc1ccno1)C2 [Compound 124, 4-((1R,5S,9r)-3-(isoxazol-5-ylmethyl)-9-methoxy-3-azabicyclo[3.3.1]nonan-9-yl)picolinamide hydrochloride]",> 75,> 5
"CCC[C@@H](C)N1CC2CCCC(C1)C2(OC)c1ccnc(C(N)=O)c1 (single isomer, unassigned) [Compound 137, hydrochloride]",10 to 75,1 to 5
"COC1(c2cccc(C(N)=O)c2)C2CCCC1CN(C[C@@H]1CCOC1)C2.Cl (single isomer, unassigned) [Compound 143, hydrochloride]",< 10,< 1
"COC1(c2ccnc(C(N)=O)c2)C2CCCC1CN([C@H]1C[C@H](C)C1)C2 (stereo partly drawn) [Compound 131, 4-((1R,5S,9R)-9-methoxy-3-((1r,3R)-3-methylcyclobutyl)-3-azabicyclo[3.3.1]nonan-9-yl)picolinamide hydrochloride]",10 to 75,1 to 5
"COC1(c2ccnc(C(N)=O)c2)C2CCCC1CN(C(C)(C)C)C2 [Compound 107, 4-((1R,5S,9r)-3-(tert-butyl)-9-methoxy-3-azabicyclo[3.3.1]nonan-9-yl)picolinamide hydrochloride]",> 75,1 to 5
"COC1(c2cccc(C(N)=O)c2)C2CCCC1CN([C@H]1C[C@@H]3[C@H](C1)C3(F)F)C2 (stereo partly drawn) [Compound 17, 3-((1R,5S,9R)-3-((1R,3r,5S)-6,6-difluorobicyclo[3.1.0]hexan-3-yl)-9-methoxy-3-azabicyclo[3.3.1]nonan-9-yl)benzamide hydrochloride]",< 10,< 1
"COC1(c2ccc(C(N)=O)s2)C2CCCC1CN(CCN1CCNC1=O)C2 [Compound 95, 5-((1R,5S,9r)-9-methoxy-3-(2-(2-oxoimidazolidin-1-yl)ethyl)-3-azabicyclo[3.3.1]nonan-9-yl)thiophene-2-carboxamide (S)-2-hydroxysuccinate]",> 75,1 to 5
"COC1(c2ccnc(C(N)=O)c2)C2CCCC1CN(Cc1ncc[nH]1)C2 [Compound 99, 4-((1R,5S,9r)-3-((1H-imidazol-2-yl)methyl)-9-methoxy-3-azabicyclo[3.3.1]nonan-9-yl)picolinamide hydrochloride]",10 to 75,1 to 5
"COC1(c2ccnc(C(N)=O)c2)C2CCCC1CN(CCN1CCNC1=O)C2 [Compound 85, 4-((1R,5S,9r)-9-methoxy-3-(2-(2-oxoimidazolidin-1-yl)ethyl)-3-azabicyclo[3.3.1]nonan-9-yl)picolinamide hydrochloride]",10 to 75,1 to 5
"COC1(c2cccc(C(N)=O)c2)C2CCCC1CN(CCc1ccccc1)C2 [Compound 24, 3-((1R,5S,9r)-9-methoxy-3-phenethyl-3-azabicyclo[3.3.1]nonan-9-yl)benzamide hydrochloride]",< 10,< 1
"COC1(c2ccnc(C(N)=O)c2)C2CCCC1CN(C1CC(F)(F)C1)C2 [Compound 82, 4-((1R,5S,9r)-3-(3,3-difluorocyclobutyl)-9-methoxy-3-azabicyclo[3.3.1]nonan-9-yl)picolinamide hydrochloride]",10 to 75,1 to 5
